In general, IC50 refers to the concentration at which inhibition is half-maximal.

Results on eleven molecules are retold here after patent US6887873B2, “Triazine derivatives and their application as antitelomerase agents” (Aventis Pharma S.A., priority 2001, dated 2005).

Assay [1] relates to human telomerease (HL60 cell extract). In words: Antitelomerease activity: extension of oligonucleotide TS followed by PCR amplification, with HL60 extract. The assay is classed as biochemical. The note with it: read-out: TRAP IC50. An outline of the steps: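 HL60 CHAPS-lysate extract extends TS primer (15 min, 30 °C) with compound at 10, 1, 0.1 and 0.01 µM, followed by 30-cycle PCR with TS and CXext. Products resolved on 12% acrylamide and quantified; % inhibition versus enzyme control and blank, IC50 read from semilog plot.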

The subject of assay [2] is A549 cells. In words: Cytotoxic activity on human tumour line A549, neutral red, 96 hours. Format: cell-based. The note with it: Homo sapiens, A549, A549; read-out: Cytotox. A549 IC50. As to the method:
The cytotoxic biological activity on human tumour lines is determined according to the following experimental protocol:
The human cell lines A549 are obtained from ATCC (American Type Culture Collection, Rockville, USA). The A549 cells are cultured in a layer in a culture flask in RPMI 1640 medium containing L-glutamine at 2 mM, penicillin 200 U/ml, streptomycin 200 μg/ml and supplemented with 10% heat-inactivated foetal calf serum. The KB cells are cultured in a layer in a culture flask in Dulbelco's medium containing L-glutamine at 2 mM, penicillin 200 U/ml, streptomycin 200 μg/ml and supplemented with 10% heat-inactivated foetal calf serum.
The cells at the exponential growth phase are trypsinized, washed in 1×PBS and are inoculated in 96-well microplates (Costar) in an amount of 4×10^4 cells/ml for A549 and of 1.5×10^4 cells/ml (0.2 ml/well) and then incubated for 96 hours in the presence of variable concentrations of product to be studied (10, 1, 0.1 and 0.01 μM, each point in quadruplicate). 16 hours before the end of the incubation, 0.02% final of neutral red is added to each well. At the end of the incubation, the cells are washed with 1×PBS and lysed with 1% sodium lauryl sulphate. The cellular incorporation of the dye, which reflects cellular growth, is evaluated by spectro-photometry at a wavelength of 540 nm for each sample with the aid of a Dynatech MR5000 reading apparatus.
For each compound concentration tested, the results are expressed as percentage of inhibition of cellular growth and calculated from the untreated control and the culture medium free of cells (blank) according to the following formula: (compound value−blank value/cell control value−blank value)×100.
The concentration of compound inducing a 50% inhibition of growth (IC50) is determined with the aid of a semilogarithmic graphical representation of the inhibition values obtained as a function of each of the compound concentrations tested.
A compound is considered to be active as cytotoxic agent if the concentration inhibiting the growth of the tumour cells tested by 50% is in particular less than 10 μM.

For `Cc1cc(N)c2cc(Nc3nc(Nc4ccc5nc(C)cc(N)c5c4)nc(N4CCCC4c4cccnc4)n3)ccc2n1` (stereo not shown) [Example 86], the IC50 was found to be 200 nM in assay [1] and 18900 nM in assay [2].

As to `Cc1cc(N)c2cc(Nc3nc(Nc4ccc5nc(C)cc(N)c5c4)nc(NC4CCN(Cc5ccccc5)C4)n3)ccc2n1` (stereo not shown) [Example 41], the figures for the IC50 in assay [1] and in assay [2] were 360 nM and 9900 nM, respectively.

As for `Cc1cc(N)c2cc(Nc3nc(Nc4ccc5nc(C)cc(N)c5c4)nc(Sc4ccccc4Cl)n3)ccc2n1` [Example 118], the figures for the 50% inhibitory concentration (IC50) in assay [1] and in assay [2] were 1400 nM and 13700 nM, respectively.

For `Cc1cc(N)c2cc(Nc3nc(Nc4ccc5nc(C)cc(N)c5c4)nc(Sc4ncccn4)n3)ccc2n1` [Example 126], the half-maximal inhibitory concentration (IC50) in assay [1] was 670 nM; in assay [2] it was 11400 nM.

On to `CCN(CCNc1nc(Nc2ccc3nc(C)cc(N(C)C)c3c2)nc(Nc2ccc3nc(C)cc(N(C)C)c3c2)n1)c1cccc(C)c1` [Example 28], for which the IC50 in assay [1] came to 900 nM; in assay [2], 1500 nM.

With `COc1ccc(CSc2nc(Nc3ccc4nc(C)cc(N)c4c3)nc(Nc3ccc4nc(C)cc(N)c4c3)n2)cc1` [Example 124], the IC50 in assay [1] stood at 900 nM; in assay [2] it was 6200 nM.

As to `Cc1cc(N)c2cc(Nc3nc(NCc4ccc([N+](C)(C)C)cc4)nc(Nc4ccc5nc(C)cc(N)c5c4)n3)ccc2n1` [Example 60], the half-maximal inhibitory concentration (IC50) came out at 3000 nM in assay [1] and 5700 nM in assay [2].

Consider `Cc1cc(N(C)C)c2cc(Nc3nc(Nc4ccc5nc(C)cc(N(C)C)c5c4)nc(N4CCC[C@H]4CN4CCCC4)n3)ccc2n1` [Example 149, 2,4-bis(4-dimethylamino-2-methylquinolin-6-yl)amino-6-[2(S)-(pyrrolidin-1-yl)methylpyrrolidin-1-yl]-[1,3,5]triazine], for which the values for the half-maximal inhibitory concentration (IC50) in assay [1] and in assay [2] were 2500 nM and 96 nM, respectively.

Consider `CCN(CCN(C)C)c1nc(Nc2ccc3nc(C)cc(N(C)C)c3c2)nc(Nc2ccc3nc(C)cc(N(C)C)c3c2)n1` [Example 146], for which the IC50 in assay [1] is 600 nM; in assay [2], 175 nM.

Consider `Cc1cc(N)c2cc(Nc3nc(Nc4ccc5nc(C)cc(N)c5c4)nc(Sc4ccc5ccccc5n4)n3)ccc2n1` [Example 128, 2,4-bis(4-amino-2-methylquinolin-6-yl)amino-6-(quinolin-2-yl)thio-[1,3,5]triazine], for which the half-inhibitory concentration (IC50) in assay [1] worked out at 390 nM; in assay [2], 2860 nM.

On to `CC1=NCCN1c1nc(Nc2ccc3nc(C)cc(N(C)C)c3c2)nc(Nc2ccc3nc(C)cc(N(C)C)c3c2)n1` [Example 148], for which the IC50 in assay [1] and in assay [2] was 1500 nM throughout.
